Literature values, collected in publication PMC7395068, “The evolution of strategies to minimise the risk of human drug-induced liver injury (DILI) in drug discovery and development” (Archives of Toxicology, 2020).
Like-named read-outs stand apart in the source and are kept apart here.

Key:
[1] = cited from earlier work
[2] = tested on: primary human hepatocytes, NIH3T3 fibroblasts, BSEP, CYP3A4; conditions: In vitro Assay; ref Schadt 2015; cited from earlier work
[3] = tested on: THLE-Null and THLE-3A4 cells; conditions: In vitro Assay; ref Gustafsson 2014; cited from earlier work
[4] = cited from earlier work; remark: listed apart in the source
rBsep = conditions: In vitro Assay; ref Dawson 2012; cited from earlier work
human hepatocytes = conditions: In vitro Assay; ref Xu 2008; cited from earlier work
PHH spheroids = conditions: In vitro Assay; ref Vorrink 2018; cited from earlier work
[5] = cited from earlier work; remark: listed apart in the source
[6] = tested on: isolated mouse liver mitochondria; conditions: In vitro Assay; ref Porceddu 2012; cited from earlier work
[7] = tested on: THLE or HepG2 cells, isolated mitochondria, BSEP; conditions: In vitro Assay; ref Aleo 2019; cited from earlier work
HepG2 cells [8] = conditions: In vitro Assay; ref Persson 2013; cited from earlier work
[9] = tested on: HepG2 cells, primary human hepatocytes; conditions: In vitro Assay; ref Garside 2014; cited from earlier work
HepG2 cells [10] = conditions: In vitro Assay; ref O'Brien 2006; cited from earlier work

SMILES | DILI +VE (5-8), DILI -VE (-4) ([1]; in vivo) | DILI severity category ([1]; in vivo) | THLE-Null [3] | DILI Score (FDA) (1-8) ([4]; in vivo) | Inhibition of rBsep cutoff<1& cmax u>.2 (rBsep) | Inhibition of rBsep cutoff<3 (rBsep) | Structural based (HCI) (human hepatocytes) | hLiMTs ATP <20 x Cmax (PHH spheroids) | in vitro data EC2<=1x Cmax [6] | DILI +VE (5-8), DILI -VE (-4) ([1]; ref Chen 2016) | DILI severity category ([1]; ref Chen 2016) | Ro2 Hybrid HRM Score [7] | In vivo DILI ([5]; ref Aleo 2019) | In vivo DILI ([5]; ref Garside 2014) | in vitro data EC20<=2uM [6] | DILI Score (FDA) (1-8) ([4]; ref Chen 2011) | Structural based (HCI) (HepG2 cells [8]) | In vivo DILI ([5]; ref Xu 2008) | Structural based (HCI) (HepG2 cells [10]) | other results
Nc1nc2c(ncn2COCCO)c(=O)[nH]1 [acyclovir] | +VE | vLess-DILI-Concern | -VE | 5 | -VE | -VE |  |  |  |  |  |  |  |  |  |  |  |  |  | Cellular toxicity (3T3 cells) [2]: -VE; Combined Assay [2]: -VE; GSH adduct HML [2]: -VE; Hepatocyte cellular toxicity [2]: -VE; MitoTox 3T3 [2]: -VE; TDI CYP3A4 [2]: -VE; hBSEP inhibition [2]: -VE
NC12CC3CC(CC(C3)C1)C2 [amantadine] | -VE | Ambiguous DILI-concern |  | 3 |  |  | -VE | -VE | -VE |  |  |  |  |  |  |  |  |  |  | In vivo DILI ([5]; in vivo): -VE
CC1(C)S[C@@H]2[C@H](NC(=O)[C@H](N)c3ccc(O)cc3)C(=O)N2[C@H]1C(=O)O [amoxicillin] |  |  | -VE |  | -VE | -VE |  |  | +VE | +VE | vLess-DILI-Concern | -VE | +VE | +VE | +VE | 3 |  |  |  | Partition Hybrid HRM Score [7]: -VE; In vivo DILI ([5]; […]): -VE; In vivo DILI ([5]; ref Dawson 2012): -VE; In vivo DILI ([5]; ref Gustafsson 2014): +VE; In vivo DILI ([5]; ref Porceddu 2012): +VE; In vivo DILI ([5]; ref Schadt 2015): -VE
CC(O)(CS(=O)(=O)c1ccc(F)cc1)C(=O)Nc1ccc(C#N)c(C(F)(F)F)c1 (stereo not drawn) [bicalutamide] |  |  |  |  |  |  | -VE |  |  | +VE | vMost-DILI-Concern |  | +VE | +VE |  | 8 | +VE | +VE |  | Cluser analysis (HepG2 cells [8]): -VE; In vivo DILI ([5]; ref Persson 2013): +VE; Cluster 1-6 +VE Assay [9]: +VE
OC(Cn1cncn1)(Cn1cncn1)c1ccc(F)cc1F [fluconazole] |  |  |  |  |  |  | -VE | -VE | +VE | +VE | vMost-DILI-Concern | -VE | +VE |  | -VE | 8 |  | +VE |  | In vivo DILI ([5]; […]): +VE; In vivo DILI ([5]; ref Porceddu 2012): +VE; In vivo DILI ([5]; ref Vorrink 2018): +VE
CC(C)Cc1ccc(C(C)C(=O)O)cc1 (stereo not drawn) [ibuprofen] | +VE | vLess-DILI-Concern | -VE | 3 | -VE | +VE |  |  | +VE |  |  |  |  |  | +VE |  | +VE |  | +VE | Cellular toxicity (3T3 cells) [2]: -VE; Combined Assay [2]: -VE; GSH adduct HML [2]: -VE; Hepatocyte cellular toxicity [2]: -VE; MitoTox 3T3 [2]: -VE; TDI CYP3A4 [2]: -VE; hBSEP inhibition [2]: -VE
CC1=C(/C=C/C(C)=C/C=C/C(C)=C\C(=O)O)C(C)(C)CCC1 [isotretinoin] |  |  |  |  |  |  | +VE |  |  | +VE | vMost-DILI-Concern |  |  | +VE |  | 2 |  | +VE | -VE | In vivo DILI ([5]; ref O'Brien 2006): +VE; Cluster 1-6 +VE Assay [9]: +VE
O=C(c1ccccc1)c1ccc2n1CCC2C(=O)O (stereo not drawn) [ketorolac] |  |  |  |  |  |  | -VE | +VE (IC20 < 20 × Cmax.tot cut-off) |  | +VE | vLess-DILI-Concern | -VE | +VE |  |  | 3 | -VE | +VE | -VE | Cluser analysis (HepG2 cells [8]): -VE; Partition Hybrid HRM Score [7]: -VE; In vivo DILI ([5]; ref O'Brien 2006): +VE; In vivo DILI ([5]; ref Persson 2013): +VE; In vivo DILI ([5]; ref Vorrink 2018): +VE
